Data taken from patent publication US9546164B2 (GENENTECH, INC., priority 2013, dated 2017).
Where a name gives a salt, the structure may show the parent alone.

Target: hNav1.7 (Homo sapiens (Human), UniProt Q15858)
Experiment: Tritiated sulfonamide competitive binding to membranes from cells expressing hNav1.7 and the β1 subunit;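 also: Filter-bound radioactivity counted by liquid scintillation, nonspecific binding defined with excess unlabelled ligand, IC50 fitted to percent inhibition of specific binding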
Settings: not given

Chain of hNav1.7 (Q15858 other isoform, or with tags, fused parts or gaps): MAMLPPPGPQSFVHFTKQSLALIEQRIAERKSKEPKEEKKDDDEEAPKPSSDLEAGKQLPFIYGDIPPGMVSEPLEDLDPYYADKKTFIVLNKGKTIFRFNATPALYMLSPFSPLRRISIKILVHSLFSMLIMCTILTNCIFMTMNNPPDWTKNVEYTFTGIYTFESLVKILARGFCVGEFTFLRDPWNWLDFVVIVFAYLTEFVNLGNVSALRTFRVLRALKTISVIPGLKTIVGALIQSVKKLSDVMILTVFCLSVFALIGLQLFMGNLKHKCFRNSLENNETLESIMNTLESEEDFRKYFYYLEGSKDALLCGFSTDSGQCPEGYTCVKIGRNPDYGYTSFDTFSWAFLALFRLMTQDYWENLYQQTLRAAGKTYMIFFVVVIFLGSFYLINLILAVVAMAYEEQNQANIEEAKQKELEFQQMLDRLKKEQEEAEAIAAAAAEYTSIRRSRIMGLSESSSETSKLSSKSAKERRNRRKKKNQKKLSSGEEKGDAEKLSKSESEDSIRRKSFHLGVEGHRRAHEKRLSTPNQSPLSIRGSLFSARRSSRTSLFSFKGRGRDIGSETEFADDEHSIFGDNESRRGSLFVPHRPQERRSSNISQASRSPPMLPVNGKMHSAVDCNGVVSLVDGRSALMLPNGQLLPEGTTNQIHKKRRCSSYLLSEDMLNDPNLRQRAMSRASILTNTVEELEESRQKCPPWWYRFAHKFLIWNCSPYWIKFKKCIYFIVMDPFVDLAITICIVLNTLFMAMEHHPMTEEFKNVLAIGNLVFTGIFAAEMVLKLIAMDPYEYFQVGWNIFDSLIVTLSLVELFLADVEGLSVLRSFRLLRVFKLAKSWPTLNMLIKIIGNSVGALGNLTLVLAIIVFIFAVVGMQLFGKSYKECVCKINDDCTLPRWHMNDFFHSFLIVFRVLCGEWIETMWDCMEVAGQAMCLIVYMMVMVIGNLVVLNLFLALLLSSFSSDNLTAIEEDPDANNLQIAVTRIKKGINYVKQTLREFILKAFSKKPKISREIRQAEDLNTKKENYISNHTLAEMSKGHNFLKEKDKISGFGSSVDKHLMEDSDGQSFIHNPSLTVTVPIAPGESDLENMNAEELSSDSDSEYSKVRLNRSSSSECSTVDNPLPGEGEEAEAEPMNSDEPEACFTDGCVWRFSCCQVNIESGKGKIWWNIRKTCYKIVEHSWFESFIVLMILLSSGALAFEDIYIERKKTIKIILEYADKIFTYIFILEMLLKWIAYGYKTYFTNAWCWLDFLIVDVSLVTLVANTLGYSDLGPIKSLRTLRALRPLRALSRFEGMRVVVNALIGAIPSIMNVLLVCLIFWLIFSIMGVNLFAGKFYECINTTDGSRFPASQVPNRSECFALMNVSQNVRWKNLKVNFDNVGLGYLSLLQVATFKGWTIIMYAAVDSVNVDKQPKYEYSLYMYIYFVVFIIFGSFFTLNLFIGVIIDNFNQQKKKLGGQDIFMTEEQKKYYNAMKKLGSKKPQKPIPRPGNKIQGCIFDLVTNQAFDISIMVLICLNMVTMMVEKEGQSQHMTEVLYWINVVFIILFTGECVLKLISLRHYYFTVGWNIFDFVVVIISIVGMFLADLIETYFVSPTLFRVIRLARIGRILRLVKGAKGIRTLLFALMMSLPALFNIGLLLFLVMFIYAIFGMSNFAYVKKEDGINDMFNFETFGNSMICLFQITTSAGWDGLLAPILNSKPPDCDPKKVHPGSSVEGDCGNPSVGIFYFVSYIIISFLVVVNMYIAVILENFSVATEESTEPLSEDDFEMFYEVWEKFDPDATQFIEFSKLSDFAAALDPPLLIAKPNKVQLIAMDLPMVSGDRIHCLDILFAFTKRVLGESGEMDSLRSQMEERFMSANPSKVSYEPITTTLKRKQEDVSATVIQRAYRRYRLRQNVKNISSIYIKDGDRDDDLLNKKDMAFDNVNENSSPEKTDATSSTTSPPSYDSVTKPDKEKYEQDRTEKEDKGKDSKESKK
Chain of hNav1.7 (Q07699 19-218 partner): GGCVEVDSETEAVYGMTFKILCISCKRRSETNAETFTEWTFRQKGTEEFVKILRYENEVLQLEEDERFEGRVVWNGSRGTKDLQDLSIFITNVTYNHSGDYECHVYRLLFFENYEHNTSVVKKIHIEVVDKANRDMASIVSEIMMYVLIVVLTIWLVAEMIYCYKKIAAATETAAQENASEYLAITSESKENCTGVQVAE

Compound | IC50
O=C(NS(=O)(=O)C1CC1)c1cc(C2CC2)c(O[C@@H]2CCCN(C(c3ccccc3)c3ccccc3)C2)cc1F [Example 16, (R)-4-((1-benzhydrylpiperidin-3-yl)oxy)-5-cyclopropyl-N-(cyclopropylsulfonyl)-2-fluorobenzamide] | 3.4 nM
CC1(C)CN(Cc2cc(F)c(C(=O)NS(=O)(=O)C3CC3)cc2C2CC2)CCC1Oc1cc(C(F)(F)F)c(Cl)cn1 (stereo not shown) [Example 562, 4-((4-((5-chloro-4-(trifluoromethyl)pyridin-2-yl)oxy)-3,3-dimethylpiperidin-1-yl)methyl)-5-cyclopropyl-N-(cyclopropylsulfonyl)-2-fluorobenzamide, trifluoroacetic acid salt] | 3.1 nM
O=C(NS(=O)(=O)N1CCC1)c1cc(C2CC2)c(O[C@@H]2CCCN(Cc3ccc(Cl)c(Cl)c3)C2)cc1F [Example 19, (R)—N-(azetidin-1-ylsulfonyl)-5-cyclopropyl-4-((1-(3,4-dichlorobenzyl)piperidin-3-yl)oxy)-2-fluorobenzamide] | 4.9 nM
O=C(NS(=O)(=O)N1CCC1)c1cc(C2CC2)c(O[C@@H]2CCCN(c3cc(Cl)cc(Cl)c3)C2)cc1F [Example 43, (R)—N-(azetidin-1-ylsulfonyl)-5-cyclopropyl-4-((1-(3,5-dichlorophenyl)piperidin-3-yl)oxy)-2-fluorobenzamide] | 4.9 nM

Same assay, conditions: read-out: Ligand Binding Assay; 100 pM [3H]compound, membranes with hNav1.7 and β1 subunit, 18 h, room temperature

Compound | IC50
Cc1cc(C(=O)NS(C)(=O)=O)c(F)cc1OCC1CCN([C@@H](C)c2cc(Cl)cc(Cl)c2)CC1 [Example 360, (S)-4-((1-(1-(3,5-dichloro)ethyl)piperidin-4-yl)methoxy)-2-fluoro-5-methyl-N-(methylsulfonyl)benzamide, trifluoroacetic acid] | 12.8 nM
CCS(=O)(=O)NC(=O)c1cc(C2CC2)c(OCC2CCN(Cc3cc(Cl)cc(C(F)(F)F)c3)CC2)cc1F [Example 216, 4-((1-(3-Chloro-5-(trifluoromethyl)benzyl)piperidin-4-yl)methoxy)-5-cyclopropyl-N-(ethylsulfonyl)-2-fluorobenzamide] | 5 nM
CS(=O)(=O)NC(=O)c1cc(C2CC2)c(OCC2CCN(Cc3ccc(C(F)(F)F)cc3)CC2)cc1F [Example 126] | 282 nM
C[C@H](c1ccc(F)cc1Cl)N1CCC[C@@H](Oc2cc(F)c(C(=O)NS(C)(=O)=O)cc2C2CC2)C1 [Example 296, 4-(((R)-1-((R)-1-(2-chloro-4-fluorophenyl)ethyl)piperidin-3-yl)oxy)-5-cyclopropyl-2-fluoro-N-(methylsulfonyl)benzamide] | 8.1 nM
CS(=O)(=O)NC(=O)c1cc(C2CC2)c(OCC2CN([C@H](c3ccccc3)c3ccc(S(C)(=O)=O)cc3)C2)cc1F [Example 96, (R)-5-Cyclopropyl-2-fluoro-N-(methylsulfonyl)-4-((1-((4-(methylsulfonyl)phenyl)(phenyl)methyl)azetidin-3-yl)methoxy)benzamide] | 429 nM
O=C(NS(=O)(=O)C1CC1)c1cc(C2CC2)c(OCC2CCN(Cc3cc(C(F)(F)F)cc(C4CC4)n3)CC2)cc1F [Example 308] | 6 nM
O=C(NS(=O)(=O)N1CCC1)c1cc(C2CC2)c(OC[C@H]2CCCN(Cc3ccc(F)cc3Cl)C2)cc1F [Example 339, (S)—N-(azetidin-1-ylsulfonyl)-4-((1-(2-chloro-4-fluorobenzyl)piperidin-3-yl)methoxy)-5-cyclopropyl-2-fluorobenzamide, trifluoroacetic acid salt] | 16.5 nM
CCS(=O)(=O)NC(=O)c1cc(C2CC2)c(OCC2(C)CN(c3ncc(Cl)cc3F)C2)cc1F [Example 484, 4-((1-(5-chloro-3-fluoropyridin-2-yl)-3-methylazetidin-3-yl)methoxy)-5-cyclopropyl-N-(ethylsulfonyl)-2-fluorobenzamide] | 9.2 nM
CC(c1cc(F)cc(F)c1)N1CCC(COc2cc(F)c(C(=O)NS(C)(=O)=O)cc2C2CC2)CC1 (stereo not shown) [Example 89, 5-Cyclopropyl-4-((1-(1-(3,5-difluorophenyl)ethyl)piperidin-4-yl)methoxy)-2-fluoro-N-(methylsulfonyl)benzamide] | 22.3 nM
CS(=O)(=O)NC(=O)c1cc(C2CC2)c(O[C@@H]2CCCN(C(=O)c3cc(Cl)cc(Cl)c3)C2)cc1F [Example 221, (R)-5-cyclopropyl-4-((1-(3,5-dichlorobenzoyl)piperidin-3-yl)oxy)-2-fluoro-N-(methylsulfonyl)benzamide] | 1800 nM
O=C(NS(=O)(=O)C1CC1)c1cc(C2CC2)c(OCC2CCN(S(=O)(=O)C3CCOCC3)CC2)cc1F [Example 377, 5-cyclopropyl-N-(cyclopropylsulfonyl)-2-fluoro-4-((1-((tetrahydro-2H-pyran-4-yl)sulfonyl)piperidin-4-yl)methoxy)benzamide] | 1260 nM
O=C(NS(=O)(=O)N1CCC1)c1cc(C2CC2)c(OCC2CCN(C(c3ccc(F)cc3)c3ccc(F)cc3)CC2)cc1F [Example 419, N-azetidin-1-ylsulfonyl)-4-((1-(bis(4-fluorophenyl)methyl)piperidin-4-yl)methoxy)-5-cyclopropyl-2-fluorobenzamide, trifluoroacetic acid salt] | 5.2 nM
CS(=O)(=O)NC(=O)c1cc(C2CC2)c(OCC2CCN(CC(F)(F)C(F)F)CC2)cc1F [Example 192, 5-Cyclopropyl-2-fluoro-N-(methylsulfonyl)-4-((1-(2,2,3,3-tetrafluoropropyl)piperidin-4-yl)methoxy)benzamide] | 34 nM
O=C(NS(=O)(=O)C1CC1)c1cc(C2CC2)c(OC[C@@H]2C[C@H]3CC[C@@H](C2)N3Cc2cc(C(F)(F)F)cc(Cl)c2F)cc1F [Example 396, 4-(((1R,3S,5S)-8-(3-chloro-2-fluoro-5-(trifluoromethyl)benzyl)-8-azabicyclo-[3.2.1]octan-3-yl)methoxy)-5-cyclopropyl-N-(cyclopropylsulfonyl)-2-fluorobenzamide, trifluoroacetic acid salt] | 14.8 nM
N#Cc1cc(C(=O)NS(=O)(=O)C2CC2)c(F)cc1OCC1CCN(Cc2cc(Cl)cc(OC(F)(F)F)c2)CC1 [Example 409, 4-((1-(3-chloro-5-(trifluoromethoxy)benzyl)piperidin-4-yl)methoxy)-5-cyano-N-(cyclopropylsulfonyl)-2-fluorobenzamide, trifluoroacetic acid salt] | 54 nM
CS(=O)(=O)NC(=O)c1cc(C2CC2)c(OCC2CCN(Cc3ccc(F)c(C(F)(F)F)c3)CC2)cc1F [Example 189, 5-Cyclopropyl-2-fluoro-4-((1-(4-fluoro-3-(trifluoromethyl)benzyl)piperidin-4-yl)methoxy)-N-(methylsulfonyl)benzamide] | 16 nM
CCS(=O)(=O)NC(=O)c1cc(C2CC2)c(OC[C@@H]2CC[C@@H](C)N([C@@H](C)c3cc(Cl)cc(Cl)c3)C2)cc1F [Example 344, trifluoroacetic acid salt] | 6.9 nM
COc1ccc(CN2CCC(COc3cc(F)c(C(=O)NS(C)(=O)=O)cc3C3CC3)CC2)cc1F [Example 94, 5-Cyclopropyl-2-fluoro-4-((1-(3-fluoro-4-methoxybenzyl)piperidin-4-yl)methoxy)-N-(methylsulfonyl)benzamide] | 150 nM
CS(=O)(=O)NC(=O)c1cc(C2CC2)c(OCC2CCN(Cc3ccc(Br)cc3Cl)CC2)cc1F [Example 413, 4-((1-(4-bromo-2-chlorobenzyl)piperidin-4-yl)methoxy-5-cyclopropyl-2-fluoro-N-(methylsulfonyl)benzamide, trifluoroacetic acid salt] | 6 nM
CS(=O)(=O)NC(=O)c1cc(C2CC2)c(OCC2CCN(Cc3ccc(F)cc3)CC2)cc1F [Example 161, 5-Cyclopropyl-2-fluoro-4-((1-(4-fluorobenzyl)piperidin-4-yl)methoxy)-N-(methylsulfonyl)benzamide] | 284 nM
O=C(NS(=O)(=O)C1CC1)c1cc(C2CC2)c(CN2CCC[C@H](Oc3cc(Cl)cc(Cl)c3)C2)cc1F [Example 53, (S)-5-cyclopropyl-N-(cyclopropylsulfonyl)-4-((3-(3,5-dichlorophenoxy)-piperidin-1-yl)methyl)-2-fluorobenzamide] | 8 nM
C[Si](C)(C)CCS(=O)(=O)NC(=O)c1cc(C2CC2)c(OCC2CN(C(c3ccccc3)c3ccccc3)C2)cc1F [Example 60, 4-((1-benzhydrylazetidin-3-yl)methoxy)-5-cyclopropyl-2-fluoro-N-((2-(trimethylsilyl)ethyl)sulfonyl)benzamide] | 1600 nM
O=C(NS(=O)(=O)C1CC1)c1cc(C2CC2)c(CN2CCC(OCc3ccc(F)cc3Cl)CC2)cc1F [Example 480, 4-((4-((2-chloro-4-fluorobenzyl)oxy)piperidin-1-yl)methyl)-5-cyclopropyl-N-(cyclopropylsulfonyl)-2-fluorobenzamide, trifluoroacetic acid salt] | 21.8 nM
CC1(COc2cc(F)c(C(=O)NS(=O)(=O)C3CC3)cc2C2CC2)CN(c2ncc(C(F)(F)F)cc2Cl)C1 [Example 481, 4-((1-(3-chloro-5-(trifluoromethyl)pyridin-2-yl)-3-methylazetidin-3-yl)methoxy)-5-cyclopropyl-N-(cyclopropylsulfonyl)-2-fluorobenzamide] | 3.1 nM
O=C(NS(=O)(=O)C1CC1)c1cc(C2CC2)c(OCC2CCN(S(=O)(=O)c3ccc(Br)c(Cl)c3)CC2)cc1F [Example 391, 4-((1-((4-bromo-3-chlorophenyl)sulfonyl)piperidin-4-yl)methoxy)-5-cyclopropyl-N-(cyclopropylsulfonyl)-2-fluorobenzamide] | 10.1 nM
CS(=O)(=O)NC(=O)c1cc(C2CC2)c(OC2CC3(C2)CN(Cc2ccc(F)cc2Cl)C3)cc1F [Example 320, 4-((2-(2-chloro-4-fluorobenzyl)-2-azaspiro[3.3]heptan-6-yl)oxy)-5-cyclopropyl-2-fluoro-N-(methylsulfonyl)benzamide, trifluoroacetic acid salt] | 213 nM
CS(=O)(=O)NC(=O)c1cc(C2CC2)c(O[C@@H]2CCCN(Cc3cc(Cl)ccc3O)C2)cc1F [Example 427, (R)-4-((1-(5-chloro-2-hydroxybenzyl)piperidin-3-yl)oxy)-5-cyclopropyl-2-fluoro-N-(methylsulfonyl)benzamide, trifluoroacetic acid salt] | 19 nM
